The text below walks through data of patent publication US20240374517A1, “LIPIODOL FORMULATION FOR TRANSARTERIAL CHEMOIMMUNOEMBOLIZATION” (Northwestern University, priority 2021, published 2024).

The series relates to HepG2 cells. Kind of series: Dox uptake and cytotoxicity in HepG2 cells. The note with it: with (20%) vs without (0%) PF127.

Turning to `COc1cccc2c1C(=O)c1c(O)c3c(c(O)c1C2=O)C[C@@](O)(C(=O)CO)C[C@@H]3O[C@H]1C[C@H](N)[C@H](O)[C@H](C)O1` [Dox, doxorubicin], the “cytotoxicity of Dox” value (CCK-8, 48 hours) is “not affected”. Also, for the setting “Dox 10 μM, 30 and 60 minutes”, the “cellular uptake of Dox” value was “not affected”.
